Test system: THP1 cells (LPS induced TNF release)
Assay: Lipopolysaccharide-Activated THP1 Cell TNF Production Assay
Type: cell-based
Conditions: Homo sapiens, THP-1; THP1 cells, bacterial LPS, secreted TNF-α after 3 h at 37° C.; read-out: IC50 values in the THP1 cell assay (LPS induced TNF release)
Method in brief: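 THP1 cells at 1E6/mL were treated with 3-fold serial compound dilutions and LPS (1 μg/mL stock) for 3 h at 37 °C. Secreted TNF-α was quantified by electrochemiluminescent sandwich immunoassay. Percent of DMSO control versus concentration was fitted to a 4-parameter equation.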

IC50 [µM]	SMILES
≤ 20	C[C@@H](Cc1cccc(CN)c1)Nc1nccc(N(C)c2ccnc(-c3cccc(F)c3)n2)n1 [Example 85, N^2-((S)-1-(3-(Aminomethyl)phenyl)propan-2-yl)-N^4-(2-(3-fluorophenyl)pyrimidin-4-yl)-N^4-methylpyrimidine-2,4-diamine]
≤ 20	Clc1nnc(Nc2ccnc(N3CCCC3Cc3ccccc3)n2)cc1-c1ccccc1 (stereo not shown) [Example 182, N-(2-(2-Benzylpyrrolidin-1-yl)pyrimidin-4-yl)-6-chloro-5-phenylpyridazin-3-amine]
≤ 20	CN(c1cccc(-c2ccoc2)n1)c1ccnc(NCCc2ccccc2)n1 [Example 146, N^4-(6-(Furan-3-yl)pyridin-2-yl)-N^4-methyl-N^2-phenethylpyrimidine-2,4-diamine]
≤ 20	C[C@H](N)c1ccc(CCNc2nccc(N(C)c3ccnc(-c4ccccc4)n3)n2)cc1 [Example 28, (S)-N^2-(4-(1-Aminoethyl)phenethyl)-N^4-methyl-N^4-(2-phenylpyrimidin-4-yl)-pyrimidine-2,4-diamine]
≤ 20	C[C@H](Nc1nccc(N(C)c2ccnc(-c3ccccc3)n2)n1)[C@@H]1CCC[C@H](CCN)C1 [Example 10, N^2-((S)-((1R,3S)-3-(2-Aminoethyl)cyclohexyl)ethyl)-N^4-methyl-N^4-(2-phenylpyrimidin-4-yl)pyrimidine-2,4-diamine]
≤ 20	CN(c1ccnc(NCCc2cccnc2)n1)c1ccnc(-c2cccc(F)c2)n1 [Example 72, N^4-(2-(3-Fluorophenyl)pyrimidin-4-yl)-N^4-methyl-N^2-(2-(pyridin-3-yl)ethyl)-pyrimidine-2,4-diamine]
≤ 20	C[C@@H](Cc1cccc(CN)c1)Nc1nccc(N(C)c2nc(N)cc(-c3ccccc3)n2)n1 [Example 8, (S)-N^4-(4-Amino-6-phenylpyrimidin-2-yl)-N^2-(1-(3-(aminomethyl)phenyl)propan-2-yl)-N^4-methylpyrimidine-2,4-diamine]
≤ 20	CN(c1c[nH]c(=O)c(-c2ccccc2)c1)c1ccnc(NCCc2ccccc2)n1 [Example 166, 5-(Methyl(2-(phenethylamino)pyrimidin-4-yl)amino)-3-phenylpyridin-2(1H)-one]
≤ 20	C[C@H](Nc1nccc(N(C)c2ccnc(-c3ccccc3)n2)n1)c1cccc(CCN)c1 [Example 19, (S)-N^2-(1-(3-(2-Aminoethyl)phenyl)ethyl)-N^4-methyl-N^4-(2-phenylpyrimidin-4-yl)pyrimidine-2,4-diamine]
≤ 20	CN(c1ccnc(NC(C)(C)Cc2ccccc2)n1)c1ccnc(-c2ccccc2)n1 [Example 6, N^4-Methyl-N^2-(2-methyl-1-phenylpropan-2-yl)-N^4-(2-phenylpyrimidin-4-yl)pyrimidine-2,4-diamine]
≤ 20	CN(c1cccc(-c2ccc(C(F)(F)F)cc2)n1)c1ccnc(NCCc2ccccc2)n1 [Example 128, N^4-Methyl-N^2-phenethyl-N^4-(6-(4-(trifluoromethyl)phenyl)pyridin-2-yl)-pyrimidine-2,4-diamine]
≤ 20	CN(c1ccnc(NCCc2cccnc2)n1)c1ccnc(-c2cc(F)ccc2F)n1 [Example 78, N^4-(2-(2,5-Difluorophenyl)pyrimidin-4-yl)-N^4-methyl-N^2-(2-(pyridin-3-yl)ethyl)-pyrimidine-2,4-diamine]
≤ 20	CN(c1ccnc(NC[C@H](N)c2ccccc2)n1)c1ccnc(-c2ccccc2)n1 [Example 112]
≤ 20	C[C@H](N)C1CCCC(CCNc2nccc(N(C)c3ccnc(-c4ccccc4)n3)n2)C1 (stereo partly drawn) [Example 12, N^2-(2-(3-((S)-1-Aminoethyl)cyclohexyl)ethyl)-N^4-methyl-N^4-(2-phenylpyrimidin-4-yl)pyrimidine-2,4-diamine]
≤ 20	CN(c1cc(-c2ccccc2)c(=O)n(C)c1)c1ccnc(N[C@@H](CC(=O)O)Cc2ccccc2)n1 [(3R)-3-((4-(methyl(1-methyl-6-oxo-5-phenyl-1,6-dihydro-3-pyridinyl)amino)-2-pyrimidinyl)amino)-4-phenylbutanoic acid]
≤ 20	C[C@H](N)c1cccc(CCNc2nccc(N(C)c3ccnc(-c4ccccc4)n3)n2)c1 [Example 21, (S)-N^2-(3-(1-Aminoethyl)phenethyl)-N^4-methyl-N^4-(2-phenylpyrimidin-4-yl)-pyrimidine-2,4-diamine]
≤ 20	C[C@@H](Cc1cccc([C@@H](C)N)c1)Nc1nccc(N(C)c2ccnc(-c3ccccc3)n2)n1 [Example 1, N^2-((S)-1-(3-((R)-1-Aminoethyl)phenyl)propan-2-yl)-N^4-methyl-N^4-(2-phenylpyrimidin-4-yl)pyrimidine-2,4-diamine]
≤ 20	CN(c1ccnc(NC2CCN(C(=O)OC(C)(C)C)CC2)n1)c1cc(-c2ccccc2)cc(=O)n1C [Example 162, tert-Butyl 4-(4-(methyl(1-2-yl)amino)pyrimidin-2-ylamino)piperidine-1-carboxylate]
≤ 20	CN(c1cccc(-c2cccc(F)c2F)n1)c1ccnc(NCCc2ccccc2)n1 [Example 145, N^4-(6-(2,3-Difluorophenyl)pyridin-2-yl)-N^4-methyl-N^2-phenethylpyrimidine-2,4-diamine]

IC50 [µM]	SMILES
≤ 20	CN(c1ccnc(NCCc2ccccc2Cl)n1)c1ccnc(-c2ccccc2)n1 [Example 14, N^2-(2-Chlorophenethyl)-N^4-methyl-N^4-(2-phenylpyrimidin-4-yl)pyrimidine-2,4-diamine]
≤ 20	CN(c1ccnc(NCCc2cccnc2)n1)c1ccnc(-c2ccc(F)cc2)n1 [Example 73, N^4-(2-(4-Fluorophenyl)pyrimidin-4-yl)-N^4-methyl-N^2-(2-(pyridin-3-yl)ethyl)-pyrimidine-2,4-diamine]
≤ 20	CNC(=O)NCc1cccc(C[C@H](C)Nc2nccc(Nc3nc(-c4ccccc4)ncc3C(=O)NC)n2)c1 [(S)-1-(3-(2-(4-(5-(Methylcarbamoyl)-2-phenylpyrimidin-4-ylamino)pyrimidin-2-ylamino)propyl)benzyl)-3-methylurea]
≤ 20	CC(=O)N1CCC(Nc2nccc(N(C)c3cc(-c4ccccc4)c(=O)n(C)c3)n2)CC1 [Example 175, 5-((2-(1-Acetylpiperidin-4-ylamino)pyrimidin-4-yl)(methyl)amino)-1-methyl-3-phenylpyridin-2(1H)-one]
≤ 20	C[C@@H](Cc1cccc([C@@H](C)N)c1)Nc1nccc(N(C)c2c[nH]c(=O)c(-c3ccccc3)c2)n1 [5-((2-((S)-1-(3-((R)-1-Aminoethyl)phenyl)propan-2-ylamino)pyrimidin-4-yl)-(methyl)amino)-3-phenylpyridin-2(1H)-one]
≤ 20	CC(Cc1cccc(CN)c1)Nc1nccc(N(C)c2cc(Cl)nc(-c3ccccc3)c2)n1 (stereo not shown) [Example 164, N^2-(1-(3-(Aminomethyl)phenyl)propan-2-yl)-N^4-(2-chloro-6-phenylpyridin-4-yl)-N4-methylpyrimidine-2,4-diamine]
≤ 20	CN(c1ccnc(NC(C)(C)CNC(=O)OC(C)(C)C)n1)c1ccnc(-c2ccccc2)n1 [Example 26, tert-Butyl 2-methyl-2-(4-(methyl(2-phenylpyrimidin-4-yl)amino)pyrimidin-2-yl-amino)propylcarbamate]
≤ 20	Cc1ccccc1-c1nccc(N(C)c2ccnc(NCCc3cccnc3)n2)n1 [Example 105, N^4-Methyl-N^2-(2-(pyridin-3-yl)ethyl)-N^4-(2-o-tolylpyrimidin-4-yl)pyrimidine-2,4-diamine]
≤ 20	NC(=O)c1cnc(-c2ccccc2)nc1Nc1ccnc(NCCc2cccnc2)n1 [Example 65, 2-Phenyl-4-(2-(2-(pyridin-3-yl)ethylamino)pyrimidin-4-ylamino)pyrimidine-5-carboxamide]
≤ 20	CN(c1ccnc(N[C@H]2CC[C@H](N)CC2)n1)c1ccnc(-c2ccccc2)n1 [Example 13, N^2-((1r,4r)-4-Aminocyclohexyl)-N^4-methyl-N^4-(2-phenylpyrimidin-4-yl)pyrimidine-2,4-diamine]
≤ 20	Cc1cc(N(C)c2ccnc(-c3ccccc3)n2)nc(NC2CCC(N)CC2)n1 (stereo not shown) [Example 33, N2-((1r,4r)-4-Aminocyclohexyl)-N4,6-dimethyl-N4-(2-phenylpyrimidin-4-yl)pyrimidine-2,4-diamine]
≤ 20	CN(c1ccnc(N[C@H](Cc2ccccc2)C(N)=O)n1)c1ccnc(-c2ccccc2)n1 [Example 39]
≤ 20	CN(c1cncc(-c2ccccc2)n1)c1ccnc(NCCc2ccccc2Cl)n1 [Example 123, N^2-(2-Chlorophenethyl)-N^4-methyl-N^4-(6-phenylpyrazin-2-yl)pyrimidine-2,4-diamine]
≤ 20	CN(c1cc(-c2ccccc2)c(=O)n(C)c1)c1ccnc(NCCc2ccccc2)n1 [Example 176, 1-Methyl-5-(methyl(2-(phenethylamino)pyrimidin-4-yl)amino)-3-phenylpyridin-2(1H)-one]
≤ 20	CC(Cc1cccc(CN)c1)Nc1nccc(N(C)c2cc(N)nc(-c3ccccc3)n2)n1 (stereo not shown) [Example 181, N^4-(2-(1-(3-(Aminomethyl)phenyl)propan-2-ylamino)pyrimidine-4-yl)-N^4-methyl-2-phenylpyrimidine-4,6-diamine]
≤ 20	COc1cccc(-c2cccc(N(C)c3ccnc(NCCc4ccccc4)n3)n2)c1 [Example 141, N^4-(6-(3-Methoxyphenyl)pyridin-2-yl)-N^4-methyl-N^2-phenethylpyrimidine-2,4-diamine]
≤ 20	Cc1ccccc1-c1cccc(N(C)c2ccnc(NCCc3ccccc3)n2)n1 [Example 139, N^4-Methyl-N^2-phenethyl-N^4-(6-o-tolylpyridin-2-yl)-pyrimidine-2,4-diamine]
≤ 20	COc1nc(-c2ccccc2)nc(N(C)c2ccnc(N[C@@H](C)Cc3cccc([C@@H](C)N)c3)n2)n1 [Example 126, N^2-((S)-1-(3-((R)-1-Aminoethyl)phenyl)propan-2-yl)-N^4-(4-methoxy-6-phenyl-1,3,5-triazin-2-yl)-N^4-methylpyrimidine-2,4-diamine]
